Calls of active or inactive are those of the source.
Assays:
[1] = activation of miR-122 Renilla sensor silencing – cell-based, Huh7 psiCHECK-miR122, Renilla luciferase, cherry-picked, dose response (AID 651956); type: functional;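 note: huh7 hepatoma cells stably carrying a psiCHECK-2 miR-122 sensor plasmid; renilla luciferase signal reporting endogenous miR-122 activity after 48 h compound exposure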
[2] = biological target: T1, Methionyl-tRNA synthetase, putative (Trypanosoma brucei brucei, UniProt Q38C91); type: functional, Trypanosoma brucei brucei strain 927/4 GUTat10.1
[3] = biological target: T1, Methionyl-tRNA synthetase, putative; type: functional, Trypanosoma brucei brucei strain 927/4 GUTat10.1; remark: listed apart in the source
[4] = Counterscreen for inhibitors of Trypanosoma brucei methionyl tRNA synthetase (MetRS): Luminescence-based cell-based high throughput dose response assay to identify compounds that are cytotoxic to Jurkat human T lymphocyte cells.; type: functional
[5] = viability loss of HPDE-C7K cells – cell-based, fluorescence, HTS, primary screen (AID 431); type: functional; conditions: Homo sapiens
[6] = biological target: FAD-linked sulfhydryl oxidase ALR (Homo sapiens, UniProt P55789); assay: ALR-catalysed DTT oxidation blockers – biochemical, H2O2 detection, luminescence, cherry-pick, dose response (AID 493248)
[7] = biological target: Hepatocyte nuclear factor 4-alpha (Homo sapiens, UniProt P41235); type: functional, cell-based;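 note: biochemical luminescence-based dose-response counterscreen measuring inhibition of HNF4 dimerization, run alongside a screen for blockers of ABHD5–perilipin-5 interaction; split luciferase complementation of HNF4 fusion proteins in cell lysate measuring dimerization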
[8] = HEK-293T cell viability reduction – luminescence, B-cell screen hits, cytotoxicity control for BCR NF-kB inhibitor project, dose response (AID 489021); type: functional, cell-based;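 note: HEK-293T cells carrying an NF-kB luciferase reporter; cells exposed to compound for about 14 hours before viability readout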
[9] = biological target: Glucose-6-phosphate 1-dehydrogenase (Homo sapiens, UniProt P11413); assay: inhibition of Homo sapiens G6PD, dose series – biochemical, fluorescence, selectivity assay for P. falciparum G6PD inhibitor project, dose response (AID 504792); type: functional
[10] = HPDE-C7 pancreatic duct cell viability loss – fluorescence, HTS (AID 430); type: functional, cell-based; conditions: Homo sapiens
[11] = Trypanosoma cruzi growth suppression in host cells – NIH3T3 host cells, beta-gal luminescence, confirmation (AID 2044); type: functional, cell-based;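 note: intracellular parasites grown in NIH/3T3 mouse fibroblasts as host cells; luminescent beta-galactosidase reporter signal from transgenic T. cruzi replicating inside host cells; inhibitors lower the luminescence signal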
[12] = test system: HT-1080; assay: HT1080 cell viability loss – fluorescence readout (AID 620); type: functional, cell-based; conditions: Homo sapiens
[13] = NIH3T3 cell viability loss – ATP luminescence, mouse fibroblasts, counter-screen, dose response (AID 2010); type: functional, cell-based;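 note: cells exposed to compound for about 90 hours before reading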
[14] = viability of HCT116 lacking mutant beta-catenin – cell-based, human colon tumor, dose response (AID 1045); type: functional;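 note: HCT116 colon tumor cells with beta catenin knocked out; cells exposed to compound for 60 hours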
[15] = biological target: Luciferin 4-monooxygenase (Photinus pyralis, UniProt P08659); assay: Counter Screen for Luciferase-based Assay Positives. [Related pubchem assays: 620, 618, 411 ]
[16] = viability of PTEN-deleted HCT116 cells – cell-based, HCT116 PTEN knockout, dose response (AID 1047); type: functional;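 note: HCT116 colon tumor cells with PTEN knocked out; cells exposed to compound for 60 hours before readout; potency for loss of cell viability measured by luminescence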
[17] = viability loss in HEK293 cells – cell-based, plate reader, cherry-picked samples, cytotoxicity control, dose response (AID 743446); type: functional
[18] = toxicity toward HepG2 liver cells – cell-based, plate reader, cherry-pick, antagonist series, cytotoxicity control, dose response (AID 743416); type: functional
[19] = A549 cell cytotoxicity, dose response, cytotoxicity control, plate reader, cherry-pick, antagonist series (AID 743412); type: functional, cell-based
[20] = alpha-synuclein stem-loop translation blockers – luminescence, H4 neuroglioblastoma cells, dose confirmation, confirmation (AID 2454); type: functional, cell-based;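 note: H4 neuroglioblastoma cells carrying an alpha-synuclein 5'UTR luciferase reporter; potency for inhibition of the luciferase signal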
[21] = biological target: Photoreceptor-specific nuclear receptor (Homo sapiens, UniProt Q9Y5X4); type: functional, cell-based;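 note: CHO-S cells with Gal4-NCOR and VP16-NR2E3 two-hybrid luciferase reporter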
[22] = luciferase reporter signal reduction – luminescence, H4-C neuroglioblastoma cells, dose response (AID 2458); type: functional, cell-based;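 note: H4 neuroglioblastoma cells stably carrying a luciferase reporter gene fusion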
[23] = alpha-synuclein stem-loop luciferase translation blockers – H4 neuroglioma cells, luminescence, confirmation (AID 1988); type: functional, cell-based
[24] = cells; type: functional, cell-based
[25] = blockade of melanocortin 4 receptor signaling – cell-based, plate reader, cherry pick, counter-screen for LGR2 antagonist project, dose response (AID 743444); type: functional;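 note: transfected HEK 293 cells stimulated with alpha-MSH peptide; potency of inhibitors of the alpha-MSH evoked signal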
[26] = biological target: T2, Heat shock factor protein 1 (Mus musculus, UniProt P38532); assay: decrease of HSF1-responsive luciferase luminescence – cell-based, NIH3T3, dose retest, confirmation (AID 2382); type: functional;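 note: NIH3T3 fibroblasts with HSF1-driven luciferase reporter stressed by proteasome inhibitor MG132; luminescence from HSF1-driven luciferase expression after 8 hours of MG132 stress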
T2 sequence (P38532 whole entry): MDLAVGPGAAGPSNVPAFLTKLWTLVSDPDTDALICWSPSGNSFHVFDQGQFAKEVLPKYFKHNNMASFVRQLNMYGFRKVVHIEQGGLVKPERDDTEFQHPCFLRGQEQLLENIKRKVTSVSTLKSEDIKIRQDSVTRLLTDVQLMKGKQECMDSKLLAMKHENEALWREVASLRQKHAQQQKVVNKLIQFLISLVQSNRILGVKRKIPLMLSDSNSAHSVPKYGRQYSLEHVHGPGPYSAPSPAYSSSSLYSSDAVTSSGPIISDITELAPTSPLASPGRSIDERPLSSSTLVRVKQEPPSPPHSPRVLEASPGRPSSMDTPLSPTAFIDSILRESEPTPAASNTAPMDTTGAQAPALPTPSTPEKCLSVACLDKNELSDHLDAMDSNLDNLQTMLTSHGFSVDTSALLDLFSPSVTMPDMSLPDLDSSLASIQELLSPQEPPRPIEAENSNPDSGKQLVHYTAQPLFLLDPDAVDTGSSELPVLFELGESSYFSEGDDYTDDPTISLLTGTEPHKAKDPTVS

[27] = Luminescence Cell-Based Dose Response HTS to Identify Inhibitors of 5'UTR Stem-Loop Driven Prion Protein mRNA Translation in H4 Neuroglioblastoma Cells. [Related pubchem assays: 1827 (Project Summary), 1813 (Primary HTS)]; type: functional
[28] = blockers of bursicon-stimulated LGR2 cAMP reporter – cell-based, HEK293, CRE-luciferase reporter, cherry pick, set 2, dose response (AID 743343); type: functional;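 note: transfected cells were stimulated with diluted bursicon conditioned medium after compound addition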
[29] = biological target: T3, Sentrin-specific protease 8 (Homo sapiens, UniProt Q96LD8); type: functional
T3 sequence (Q96LD8 whole entry): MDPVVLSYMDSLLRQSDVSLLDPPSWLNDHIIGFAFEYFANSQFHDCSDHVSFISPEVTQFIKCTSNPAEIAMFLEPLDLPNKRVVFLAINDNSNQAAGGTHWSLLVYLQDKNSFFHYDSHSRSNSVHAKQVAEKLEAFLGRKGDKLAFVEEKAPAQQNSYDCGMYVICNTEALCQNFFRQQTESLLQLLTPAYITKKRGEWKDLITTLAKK

[30] = biological target: T4, Caspase-3 (Homo sapiens, UniProt P42574); assay: Dose-response confirmation of uHTS inhibitor hits of Sentrin-Specific Protease 8 in a Caspase-3 Fluorescence assay.; type: functional
T4 sequence (P42574 whole entry): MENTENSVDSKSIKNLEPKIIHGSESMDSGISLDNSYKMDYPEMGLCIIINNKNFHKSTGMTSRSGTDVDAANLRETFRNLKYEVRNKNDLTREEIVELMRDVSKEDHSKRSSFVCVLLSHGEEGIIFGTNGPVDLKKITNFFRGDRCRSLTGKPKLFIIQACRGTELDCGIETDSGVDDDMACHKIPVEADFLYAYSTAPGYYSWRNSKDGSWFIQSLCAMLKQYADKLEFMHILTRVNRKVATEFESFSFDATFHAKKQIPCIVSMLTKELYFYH

[31] = biological target: T3, Sentrin-specific protease 8; type: functional; remark: listed apart in the source
[32] = biological target: T5, Caspase-6 (Homo sapiens, UniProt P55212); assay: inhibition of CASP6 peptide cleavage – biochemical, VEID-R110 fluorescence, cherry-pick, dose response (AID 720632)
T5 sequence (P55212 whole entry): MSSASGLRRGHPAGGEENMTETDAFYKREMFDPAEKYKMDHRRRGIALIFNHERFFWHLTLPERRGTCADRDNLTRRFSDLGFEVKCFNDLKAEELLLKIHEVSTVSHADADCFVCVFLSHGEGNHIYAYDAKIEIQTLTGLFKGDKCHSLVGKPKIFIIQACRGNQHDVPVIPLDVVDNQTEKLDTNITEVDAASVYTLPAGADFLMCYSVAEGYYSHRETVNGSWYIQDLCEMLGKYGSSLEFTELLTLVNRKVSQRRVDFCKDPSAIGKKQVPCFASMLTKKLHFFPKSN

[33] = biological target: T6, Beta-lactamase (Pseudomonas aeruginosa, UniProt Q79MP6); assay: inhibition of IMP-1 beta-lactamase activity – biochemical, epi-absorbance, selectivity assay for VIM-2 inhibitor project, dose response (AID 1920)
[34] = biological target: T7, Beta Lactamase (Pseudomonas aeruginosa, UniProt Q932Y6); assay: VIM-2 CCF2 hydrolysis inhibition, assay artifact filter – biochemical, FRET readout, CCF2 substrate, artefact control for selective VIM-2 inhibitor project, dose response (AID 1926)
[35] = biological target: T7, Beta Lactamase; assay: concentration-dependent VIM-2 enzyme inhibition – biochemical, epi-absorbance readout, selective inhibitors, dose response (AID 1919)
[36] = biological target: Beta-lactamase (Salmonella choleraesuis (strain SC-B67), UniProt Q5J463); assay: Epi-absorbance-based counterscreen for selective VIM-2 inhibitors: dose response biochemical high throughput screening assay to identify inhibitors of TEM-1 serine-beta-lactamase.
[37] = biological target: T6, Beta-lactamase; assay: […] counterscreen for selective VIM-2 inhibitors: dose response biochemical high throughput screening assay to identify inhibitors of IMP-1 metallo-beta-lactamase.
[38] = biological target: T8, Sentrin-specific protease 1 (Homo sapiens, UniProt Q9P0U3); assay: SENP1 catalytic domain blockers, concentration series – biochemical, kinetic FRET, dose response (AID 651697); type: functional; conditions: read-out: IC50_Mean
[39] = biological target: T8, Sentrin-specific protease 1; assay: Dose response confirmation of small molecule inhibitors of the catalytic domain of the SUMO protease, SENP1 in a FRET assay.; type: functional; conditions: read-out: IC50_Mean
[40] = viability of uninfected HEp-2 cells – cell-based, HTS, cytotoxicity control for RSV inhibitor project, dose response (AID 2410); type: functional; conditions: human respiratory syncytial virus
[41] = biological target: T9, Rac GTPase-activating protein 1 (Homo sapiens, UniProt Q9H0H5); assay: blockers of MgcRacGAP-driven Rac1 GTP hydrolysis – biochemical, ADP Hunter fluorescence, primary and confirmatory, confirmation (AID 624330); type: functional
T9 sequence (Q9H0H5 whole entry): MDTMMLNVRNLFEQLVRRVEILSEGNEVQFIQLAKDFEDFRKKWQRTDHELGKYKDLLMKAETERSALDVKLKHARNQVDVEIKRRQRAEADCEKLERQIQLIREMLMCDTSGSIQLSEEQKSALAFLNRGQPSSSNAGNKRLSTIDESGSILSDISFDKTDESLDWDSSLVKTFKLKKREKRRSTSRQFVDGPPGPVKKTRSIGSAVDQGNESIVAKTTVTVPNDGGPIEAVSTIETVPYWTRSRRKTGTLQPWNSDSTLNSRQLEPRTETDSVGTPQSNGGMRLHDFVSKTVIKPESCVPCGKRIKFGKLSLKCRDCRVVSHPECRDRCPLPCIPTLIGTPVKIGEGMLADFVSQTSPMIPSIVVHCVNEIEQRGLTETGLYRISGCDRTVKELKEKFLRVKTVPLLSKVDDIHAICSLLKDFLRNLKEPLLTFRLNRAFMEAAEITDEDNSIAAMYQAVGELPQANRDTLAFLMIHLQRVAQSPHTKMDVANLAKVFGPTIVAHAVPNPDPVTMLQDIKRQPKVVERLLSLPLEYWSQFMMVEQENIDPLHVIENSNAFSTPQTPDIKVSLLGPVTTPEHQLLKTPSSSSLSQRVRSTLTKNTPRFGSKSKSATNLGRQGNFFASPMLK

[42] = viability loss in HeLa cells – cytotoxicity control for MgcRacGAP inhibitor project, dose response (AID 624300); type: functional

T7 sequence (Q932Y6 whole entry): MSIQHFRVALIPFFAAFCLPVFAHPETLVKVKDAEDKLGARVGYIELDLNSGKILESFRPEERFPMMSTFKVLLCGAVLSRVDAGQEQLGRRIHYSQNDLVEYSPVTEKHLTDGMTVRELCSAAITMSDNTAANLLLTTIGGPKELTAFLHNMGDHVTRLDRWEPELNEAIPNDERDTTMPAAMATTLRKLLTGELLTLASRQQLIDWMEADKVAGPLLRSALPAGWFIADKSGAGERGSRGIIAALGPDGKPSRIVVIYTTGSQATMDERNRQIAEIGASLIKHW
T1 sequence (Q38C91 whole entry): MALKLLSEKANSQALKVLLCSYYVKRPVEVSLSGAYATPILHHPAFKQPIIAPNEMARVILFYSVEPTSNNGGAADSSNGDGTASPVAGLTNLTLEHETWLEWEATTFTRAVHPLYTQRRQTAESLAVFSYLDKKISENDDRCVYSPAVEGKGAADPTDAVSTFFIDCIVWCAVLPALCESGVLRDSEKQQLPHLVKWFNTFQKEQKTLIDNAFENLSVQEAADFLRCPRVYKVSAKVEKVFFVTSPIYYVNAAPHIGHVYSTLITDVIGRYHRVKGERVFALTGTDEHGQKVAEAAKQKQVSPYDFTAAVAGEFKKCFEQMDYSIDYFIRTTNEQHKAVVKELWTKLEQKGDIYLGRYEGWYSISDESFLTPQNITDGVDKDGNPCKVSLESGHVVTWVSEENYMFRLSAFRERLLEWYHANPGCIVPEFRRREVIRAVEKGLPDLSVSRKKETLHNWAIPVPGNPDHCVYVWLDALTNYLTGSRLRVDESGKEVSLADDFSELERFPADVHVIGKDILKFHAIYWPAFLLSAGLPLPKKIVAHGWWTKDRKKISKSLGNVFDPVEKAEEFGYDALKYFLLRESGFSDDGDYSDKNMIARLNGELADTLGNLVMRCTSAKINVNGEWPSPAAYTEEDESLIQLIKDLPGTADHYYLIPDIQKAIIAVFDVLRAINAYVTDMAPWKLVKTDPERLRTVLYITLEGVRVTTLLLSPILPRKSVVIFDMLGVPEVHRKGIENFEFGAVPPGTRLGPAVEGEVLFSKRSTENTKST
T8 sequence (Q9P0U3 whole entry, the tested form may be a part): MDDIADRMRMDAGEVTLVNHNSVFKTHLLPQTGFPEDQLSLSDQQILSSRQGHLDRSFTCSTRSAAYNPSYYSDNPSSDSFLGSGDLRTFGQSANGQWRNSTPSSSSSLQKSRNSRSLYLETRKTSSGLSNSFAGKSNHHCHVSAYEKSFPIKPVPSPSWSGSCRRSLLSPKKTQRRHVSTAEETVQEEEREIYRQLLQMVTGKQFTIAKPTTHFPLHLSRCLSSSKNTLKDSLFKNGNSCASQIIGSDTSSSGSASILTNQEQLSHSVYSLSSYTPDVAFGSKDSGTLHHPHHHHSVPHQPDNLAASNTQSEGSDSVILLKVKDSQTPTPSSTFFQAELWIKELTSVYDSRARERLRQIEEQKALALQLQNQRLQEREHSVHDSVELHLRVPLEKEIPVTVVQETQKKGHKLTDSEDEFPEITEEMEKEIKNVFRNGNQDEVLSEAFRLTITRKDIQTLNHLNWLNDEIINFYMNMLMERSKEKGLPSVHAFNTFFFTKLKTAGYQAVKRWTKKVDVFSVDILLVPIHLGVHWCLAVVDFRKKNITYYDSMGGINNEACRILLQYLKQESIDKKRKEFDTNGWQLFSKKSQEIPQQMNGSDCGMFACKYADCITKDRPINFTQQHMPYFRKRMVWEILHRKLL
T6 sequence (Q79MP6 whole entry): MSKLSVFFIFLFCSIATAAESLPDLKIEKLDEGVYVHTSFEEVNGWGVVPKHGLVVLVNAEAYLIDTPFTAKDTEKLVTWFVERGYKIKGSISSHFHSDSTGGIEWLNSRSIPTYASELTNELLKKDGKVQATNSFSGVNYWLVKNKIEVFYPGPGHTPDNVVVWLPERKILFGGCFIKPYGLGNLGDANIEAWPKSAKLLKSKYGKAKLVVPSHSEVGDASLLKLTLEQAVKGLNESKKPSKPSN
Sequence of Photoreceptor-specific nuclear receptor (Q9Y5X4 whole entry, the tested form may be a part): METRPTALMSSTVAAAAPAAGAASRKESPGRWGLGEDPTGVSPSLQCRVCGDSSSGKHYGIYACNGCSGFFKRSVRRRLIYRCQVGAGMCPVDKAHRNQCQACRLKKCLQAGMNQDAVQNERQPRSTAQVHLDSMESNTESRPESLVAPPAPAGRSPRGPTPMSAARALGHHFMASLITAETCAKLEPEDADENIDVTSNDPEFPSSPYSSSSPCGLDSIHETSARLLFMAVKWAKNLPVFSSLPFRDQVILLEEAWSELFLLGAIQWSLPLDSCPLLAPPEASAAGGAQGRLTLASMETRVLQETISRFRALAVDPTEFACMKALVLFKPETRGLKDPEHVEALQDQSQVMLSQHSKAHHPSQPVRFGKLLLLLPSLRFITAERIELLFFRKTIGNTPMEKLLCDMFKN
Sequence of Hepatocyte nuclear factor 4-alpha (P41235 whole entry, the tested form may be a part): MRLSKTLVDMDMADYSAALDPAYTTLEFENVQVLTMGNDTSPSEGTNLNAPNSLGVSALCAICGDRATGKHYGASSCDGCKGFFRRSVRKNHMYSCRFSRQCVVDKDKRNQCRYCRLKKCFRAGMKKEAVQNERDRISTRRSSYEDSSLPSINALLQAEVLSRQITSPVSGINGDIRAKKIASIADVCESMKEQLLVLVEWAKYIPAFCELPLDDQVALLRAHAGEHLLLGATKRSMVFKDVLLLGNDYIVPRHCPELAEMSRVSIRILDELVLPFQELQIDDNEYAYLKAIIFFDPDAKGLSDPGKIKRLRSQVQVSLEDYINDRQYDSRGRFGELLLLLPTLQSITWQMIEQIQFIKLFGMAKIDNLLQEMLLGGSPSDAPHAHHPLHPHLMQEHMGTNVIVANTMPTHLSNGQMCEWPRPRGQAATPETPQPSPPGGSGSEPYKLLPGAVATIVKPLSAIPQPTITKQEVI
Sequence of FAD-linked sulfhydryl oxidase ALR (P55789 whole entry, the tested form may be a part): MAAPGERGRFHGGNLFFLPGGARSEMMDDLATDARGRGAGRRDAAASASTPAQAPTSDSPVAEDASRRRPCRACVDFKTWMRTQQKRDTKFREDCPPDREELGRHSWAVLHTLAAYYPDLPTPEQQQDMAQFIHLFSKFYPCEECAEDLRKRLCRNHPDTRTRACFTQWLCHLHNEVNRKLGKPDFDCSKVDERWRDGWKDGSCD
Sequence of Glucose-6-phosphate 1-dehydrogenase (P11413 whole entry): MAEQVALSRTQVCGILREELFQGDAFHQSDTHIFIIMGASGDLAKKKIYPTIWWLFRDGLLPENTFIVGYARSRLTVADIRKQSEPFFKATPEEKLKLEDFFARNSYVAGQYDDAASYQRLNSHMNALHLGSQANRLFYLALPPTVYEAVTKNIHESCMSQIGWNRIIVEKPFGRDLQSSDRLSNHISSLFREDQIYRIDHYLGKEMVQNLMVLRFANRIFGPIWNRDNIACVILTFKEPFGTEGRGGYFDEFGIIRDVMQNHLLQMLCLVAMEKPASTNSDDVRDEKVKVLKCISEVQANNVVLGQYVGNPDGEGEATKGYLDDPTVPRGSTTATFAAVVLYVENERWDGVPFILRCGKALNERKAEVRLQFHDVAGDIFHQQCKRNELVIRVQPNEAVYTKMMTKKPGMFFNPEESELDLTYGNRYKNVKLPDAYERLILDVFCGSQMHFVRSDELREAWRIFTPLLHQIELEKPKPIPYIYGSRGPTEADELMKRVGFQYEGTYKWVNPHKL
Sequence of Luciferin 4-monooxygenase (P08659 whole entry): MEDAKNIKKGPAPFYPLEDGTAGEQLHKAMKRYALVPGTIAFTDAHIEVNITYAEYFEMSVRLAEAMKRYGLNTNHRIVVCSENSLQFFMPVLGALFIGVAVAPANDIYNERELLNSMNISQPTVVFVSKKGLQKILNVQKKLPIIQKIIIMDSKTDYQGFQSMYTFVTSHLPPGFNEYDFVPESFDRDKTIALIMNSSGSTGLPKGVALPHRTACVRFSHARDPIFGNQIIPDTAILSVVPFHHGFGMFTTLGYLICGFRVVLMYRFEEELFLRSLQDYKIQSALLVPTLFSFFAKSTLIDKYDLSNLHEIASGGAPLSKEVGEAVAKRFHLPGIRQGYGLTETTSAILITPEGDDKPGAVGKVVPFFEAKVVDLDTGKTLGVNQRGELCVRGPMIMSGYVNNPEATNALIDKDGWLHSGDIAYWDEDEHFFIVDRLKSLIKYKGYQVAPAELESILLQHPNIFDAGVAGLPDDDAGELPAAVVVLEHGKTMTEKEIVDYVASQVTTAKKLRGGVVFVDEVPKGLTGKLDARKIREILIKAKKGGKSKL
Sequence of Beta-lactamase (Salmonella choleraesuis (strain SC-B67), UniProt Q5J463) (Q5J463 whole entry): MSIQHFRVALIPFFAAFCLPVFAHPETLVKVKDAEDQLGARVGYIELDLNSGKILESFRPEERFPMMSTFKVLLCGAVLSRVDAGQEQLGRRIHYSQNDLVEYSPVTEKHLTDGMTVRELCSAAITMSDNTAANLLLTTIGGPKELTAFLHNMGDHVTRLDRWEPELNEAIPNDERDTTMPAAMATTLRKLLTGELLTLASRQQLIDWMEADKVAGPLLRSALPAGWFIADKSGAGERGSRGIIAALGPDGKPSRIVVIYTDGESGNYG

CC(C)(C)c1ccc(S(=O)(=O)NCCc2ccncc2)cc1
active: AC50 [1] 25 µM

O=C(NCCCCc1ccccc1)Nc1cccc(F)c1
inactive: IC50 [2] 15.5 µM | IC50 [3] 11.9 µM | IC50 [4] 83.3 µM

CC1=CC(C)(C)Nc2ccc(OC(=O)CN3C(=O)CCC3=O)cc21
inactive: IC50 [8] 48.4 µM | IC50 [9] 54 µM
> 50 µM (not active): EC50 [12]
active: EC50 [5] 8.75 µM | AC50 [6] 2.79 µM | IC50 [7] 9.33 µM | EC50 [10] 7.45 µM | EC50 [11] 2.93 µM | EC50 [13] 8.86 µM | EC50 [14] 5.71 µM | EC50 [15] 0.79 µM | EC50 [16] 8.84 µM

Cc1cc(C(=O)Nc2ccc(Cl)cc2)c(C)n1-c1ccccc1
active: EC50 [20] 0.149 µM | IC50 [21] 0.017 µM | EC50 [22] 0.409 µM | EC50 [23] < 0.1 µM | EC50 [24] 1.43 µM | AC50 [25] < 0.068 µM | EC50 [26] < 0.16 µM | EC50 [27] 8.36 µM | AC50 [28] < 0.068 µM
inactive: AC50 [17] > 52 µM | AC50 [18] > 52 µM | AC50 [19] > 52 µM

O=C(COC(=O)c1ccc([N+](=O)[O-])o1)NCc1ccc(F)cc1
inactive: IC50 [30] 99.7 µM
active: IC50 [29] 6.4 µM | IC50 [31] 11.7 µM | AC50 [32] 40.7 µM

O=C(C1=C(O)C(=O)N(Cc2cccnc2)C1c1ccccn1)c1ccccc1 (configuration not stated)
active: IC50 [34] 2.17 µM | IC50 [35] 5 µM
inactive: IC50 [33] > 59.6 µM | IC50 [36] > 59.6 µM | IC50 [37] > 59.6 µM

COc1ccc(-c2ccc3c(c2)S(=O)(=O)c2cccc(C(=O)NCCOc4ccccc4)c2C3=O)cc1OC
active: IC50 [38] 10.5 µM | IC50 [39] 8.3 µM | CC50 [40] 46.1 µM

COc1cc(/C=N/NC(=O)NC23CC4CC(CC(C4)C2)C3)ccc1O
active: IC50 [41] 54.5 µM | CC50 [42] 100 µM

Source: ChEMBL document CHEMBL1201862, “PubChem BioAssay data set” (2004)
